Experimental findings from PubChem BioAssay (NCI) are described below.

Among the test systems are 786-0 renal; A549 NSCLC; BT-549 breast; CCRF-CEM leukemia; HCT-15 colon; LOX IMVI melanoma; M14 melanoma; MCF7 breast; MDA-MB-231 breast; NCI-H23 lung; NCI-H522 lung; OVCAR-3 ovarian; OVCAR-5 ovarian; PC-3 prostate; RXF 393 renal; SK-MEL-5 melanoma; SK-OV-3 ovarian; SR leukemia; UACC-257 melanoma.
What all share (assay): NCI anticancer screen, dose series, 48 h

Molecules are shown by their SMILES.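 Tested at 5 concentrations; 48 h exposure; 96-well plates; endpoints linearly interpolated, else capped at highest concentration. TGI denotes the concentration required for complete inhibition of growth.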

As to `NNCCc1n[nH]c(=O)n1N`, the TGI in the test on 786-0 renal, with A549 NSCLC, in the test with BT-549 breast, with CCRF-CEM leukemia, in the test with HCT-15 colon and with LOX IMVI melanoma was over 100 µM in each case. The TGI with M14 melanoma, with MCF7 breast, in the test on MDA-MB-231 breast, in the test with NCI-H23 lung, in the test with NCI-H522 lung and in the test on OVCAR-3 ovarian was over 100 µM each time. For the same molecule, the TGI in the test with OVCAR-5 ovarian, in the test on PC-3 prostate, in the test on RXF 393 renal, in the test on SK-MEL-5 melanoma, in the test with SK-OV-3 ovarian and with SR leukemia was over 100 µM in each case. Moreover, the TGI in the test with UACC-257 melanoma is over 100 µM.

On to `COc1ccc(C(=O)/C=C/c2cccnc2)cc1OC`, for which the TGI was 14.1 µM in the test on 786-0 renal; 27.7 µM in the test with A549 NSCLC; 19.3 µM in the test on BT-549 breast; over 100 µM with CCRF-CEM leukemia; 23.9 µM with HCT-15 colon; 3.81 µM with LOX IMVI melanoma. Besides, the TGI worked out at 26.6 µM in the test on M14 melanoma; 13 µM in the test on MCF7 breast; 23.8 µM with MDA-MB-231 breast; 22.9 µM with NCI-H23 lung; 3.5 µM with NCI-H522 lung; 11 µM in the test with OVCAR-3 ovarian. Besides, the TGI with OVCAR-5 ovarian was 24.6 µM; in the test with PC-3 prostate it was 28 µM; in the test with RXF 393 renal it was 18.6 µM; in the test with SK-MEL-5 melanoma, 27.4 µM; in the test with SK-OV-3 ovarian, 28.6 µM; in the test on SR leukemia, 6.02 µM. Also, in the test with UACC-257 melanoma, the TGI worked out at 29 µM.

Consider `NC(=O)NC(=O)c1cccc(NC(=O)CF)c1`, for which the TGI in the test with 786-0 renal, in the test with A549 NSCLC, in the test with BT-549 breast, in the test with CCRF-CEM leukemia, in the test on HCT-15 colon and with LOX IMVI melanoma was over 100 µM in each case. The TGI in the test on M14 melanoma, in the test on MCF7 breast, in the test with MDA-MB-231 breast, in the test with NCI-H23 lung, in the test on NCI-H522 lung and with OVCAR-3 ovarian was over 100 µM each time. The TGI with OVCAR-5 ovarian, with PC-3 prostate, with RXF 393 renal, in the test with SK-MEL-5 melanoma, in the test on SK-OV-3 ovarian and in the test on SR leukemia was over 100 µM each time. Besides, the TGI in the test with UACC-257 melanoma is over 100 µM.

For the molecule `COc1cccc2c1C(=O)c1ccc3cc(CCl)cc(O)c3c1C2=O`, the TGI with 786-0 renal came out at 0.432 µM; with A549 NSCLC, 1.36 µM; with BT-549 breast it was 1.39 µM; with CCRF-CEM leukemia, 1.98 µM; in the test with HCT-15 colon, 1.13 µM; in the test with LOX IMVI melanoma, 0.595 µM. Further, the TGI in the test with M14 melanoma amounted to 0.743 µM; in the test on MCF7 breast it was 1.31 µM; in the test with MDA-MB-231 breast it was 0.35 µM; in the test on NCI-H23 lung, 1.27 µM; in the test on NCI-H522 lung, 1.15 µM; with OVCAR-3 ovarian it was 0.696 µM. The TGI in the test on OVCAR-5 ovarian turned out to be 1.71 µM; in the test with PC-3 prostate, 0.973 µM; in the test on RXF 393 renal, 0.756 µM; in the test with SK-MEL-5 melanoma, 1.19 µM; in the test with SK-OV-3 ovarian, 1.83 µM; with SR leukemia, 1.13 µM. Moreover, in the test with UACC-257 melanoma, the TGI worked out at 0.698 µM.

`O=C1Nc2ccccc2/C1=C/c1c(Cl)[nH]c2ccc(O)cc12`: the TGI in the test on 786-0 renal was 25.9 µM; in the test with A549 NSCLC it was over 37.8 µM; in the test on BT-549 breast it was 18.9 µM; in the test on CCRF-CEM leukemia, 10.1 µM; in the test with HCT-15 colon it was 17.5 µM; in the test with LOX IMVI melanoma it was 27.8 µM. Further, the TGI in the test on M14 melanoma was 11 µM; in the test with MCF7 breast, 14.8 µM; in the test on MDA-MB-231 breast it was 6.77 µM; in the test on NCI-H23 lung it was 13.8 µM; in the test with NCI-H522 lung it was 6.74 µM; with OVCAR-3 ovarian, over 48.1 µM. In addition, the TGI with OVCAR-5 ovarian turned out to be 17.1 µM; with PC-3 prostate it was 16.3 µM; with RXF 393 renal it was 9.02 µM; in the test with SK-MEL-5 melanoma, 9.54 µM; with SK-OV-3 ovarian, 30.4 µM; with SR leukemia it was 12 µM. For the same molecule, in the test on UACC-257 melanoma, the TGI turned out to be 22.6 µM.

On to `CN(C)CCn1c(=O)c2ccc3c4c(nn3CCN(C)C)c3cc(O)ccc3n(c1=O)c24`, for which the TGI worked out at 0.424 µM with 786-0 renal; 1.54 µM with A549 NSCLC; 3.66 µM in the test with BT-549 breast; 0.656 µM with CCRF-CEM leukemia; 3.36 µM in the test with HCT-15 colon; 0.101 µM in the test with LOX IMVI melanoma. The TGI in the test on M14 melanoma worked out at 0.846 µM; in the test with MCF7 breast, 0.392 µM; with MDA-MB-231 breast, 0.727 µM; in the test with NCI-H23 lung, 0.701 µM; in the test on NCI-H522 lung, 0.0292 µM; with OVCAR-3 ovarian, 0.842 µM. Besides, the TGI in the test with OVCAR-5 ovarian was 1.26 µM; in the test with PC-3 prostate, 2.98 µM; in the test on RXF 393 renal it was 0.977 µM; in the test with SK-MEL-5 melanoma, 0.787 µM; with SK-OV-3 ovarian, 0.74 µM; in the test with SR leukemia, 0.0505 µM. In the test with UACC-257 melanoma, the TGI was 1.16 µM.

On to `c1ccc2c(c1)nc1n2C2CCC(C2)N1` (configuration not stated), for which the TGI with 786-0 renal, in the test with A549 NSCLC, in the test with BT-549 breast, with CCRF-CEM leukemia, in the test on HCT-15 colon and in the test with LOX IMVI melanoma was over 10 µM each time. For the same molecule, the TGI with M14 melanoma, in the test on MCF7 breast, with MDA-MB-231 breast, in the test on NCI-H23 lung, in the test on NCI-H522 lung and in the test with OVCAR-3 ovarian was over 10 µM each time. Moreover, the TGI with OVCAR-5 ovarian, with PC-3 prostate, in the test with RXF 393 renal, in the test with SK-MEL-5 melanoma, with SK-OV-3 ovarian and with SR leukemia was over 10 µM throughout. The molecule further displayed a TGI in the test on UACC-257 melanoma of over 10 µM.

Take `CCOC(=O)/C=C(\C(=O)OCC)n1ccc(=O)n(CC(=O)OCC)c1=O`: the TGI in the test on 786-0 renal stood at 4.1 µM; with A549 NSCLC, 32.3 µM; in the test on BT-549 breast, 29.1 µM; in the test on CCRF-CEM leukemia, 3.29 µM; with HCT-15 colon it was 4.4 µM; in the test on LOX IMVI melanoma, 5.23 µM. In addition, the TGI with M14 melanoma is 5.48 µM; in the test on MCF7 breast, 9.73 µM; in the test with MDA-MB-231 breast it was 17.2 µM; with NCI-H23 lung it was 28.1 µM; in the test on NCI-H522 lung it was 3.25 µM; in the test on OVCAR-3 ovarian, 12.5 µM. The TGI with OVCAR-5 ovarian turned out to be 10.1 µM; in the test with PC-3 prostate it was 11.2 µM; in the test on RXF 393 renal it was 2.97 µM; with SK-MEL-5 melanoma, 25.8 µM; in the test on SK-OV-3 ovarian, 32.4 µM; in the test on SR leukemia, 5.27 µM. The TGI in the test with UACC-257 melanoma is 24.2 µM.
